Test results reported in ChEMBL document CHEMBL2449286, “Structure-activity data for a series of P-glycoprotein inhibitors (Supplementary Data to CHEMBL1142990)”.

Target: ATP-dependent translocase ABCB1 (Homo sapiens, UniProt P08183)
Sequence (P08183 whole entry): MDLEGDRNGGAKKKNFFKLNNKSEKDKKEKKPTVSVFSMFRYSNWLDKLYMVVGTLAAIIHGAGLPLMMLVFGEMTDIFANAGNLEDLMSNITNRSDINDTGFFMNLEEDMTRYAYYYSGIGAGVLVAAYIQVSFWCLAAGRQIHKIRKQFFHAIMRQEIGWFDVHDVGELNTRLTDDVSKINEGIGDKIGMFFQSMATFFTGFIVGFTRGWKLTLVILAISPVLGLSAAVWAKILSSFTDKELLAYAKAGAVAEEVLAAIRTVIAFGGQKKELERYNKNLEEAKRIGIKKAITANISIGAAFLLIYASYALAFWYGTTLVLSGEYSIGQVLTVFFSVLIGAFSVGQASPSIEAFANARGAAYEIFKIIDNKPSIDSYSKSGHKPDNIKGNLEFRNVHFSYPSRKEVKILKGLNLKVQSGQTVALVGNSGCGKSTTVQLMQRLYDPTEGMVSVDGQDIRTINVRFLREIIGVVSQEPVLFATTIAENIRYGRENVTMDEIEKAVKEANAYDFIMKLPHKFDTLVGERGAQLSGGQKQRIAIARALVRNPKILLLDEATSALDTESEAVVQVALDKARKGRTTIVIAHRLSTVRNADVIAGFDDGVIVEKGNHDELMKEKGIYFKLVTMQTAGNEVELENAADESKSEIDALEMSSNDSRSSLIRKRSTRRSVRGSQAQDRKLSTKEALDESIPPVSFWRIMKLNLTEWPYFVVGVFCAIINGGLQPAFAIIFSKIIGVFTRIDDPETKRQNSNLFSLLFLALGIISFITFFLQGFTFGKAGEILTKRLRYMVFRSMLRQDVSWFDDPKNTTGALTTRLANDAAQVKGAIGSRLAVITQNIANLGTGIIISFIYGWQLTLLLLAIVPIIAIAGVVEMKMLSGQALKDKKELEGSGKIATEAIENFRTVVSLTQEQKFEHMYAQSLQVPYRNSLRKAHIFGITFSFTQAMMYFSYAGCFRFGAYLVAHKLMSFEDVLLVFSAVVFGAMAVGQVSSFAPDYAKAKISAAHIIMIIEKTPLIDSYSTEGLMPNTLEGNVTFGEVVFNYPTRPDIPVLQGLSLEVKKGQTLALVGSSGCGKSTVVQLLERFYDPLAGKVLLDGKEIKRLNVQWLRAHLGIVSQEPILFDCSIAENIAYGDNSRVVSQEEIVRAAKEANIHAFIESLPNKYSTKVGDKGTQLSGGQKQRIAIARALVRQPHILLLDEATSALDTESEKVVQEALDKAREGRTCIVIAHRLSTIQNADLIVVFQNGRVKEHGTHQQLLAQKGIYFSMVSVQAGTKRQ

SMILES | EC50
O=C1c2c(cccc2OC[C@H](O)CN2CCCCC2)C[C@@H]1Cc1ccccc1 | 0.214 µM
CCC(=O)c1ccccc1OC[C@H](O)CN1CCC(O)(c2ccccc2)CC1 | 0.302 µM
CC(=O)c1ccccc1OC[C@H](O)CN(C(C)C)C(C)C | 10 µM
O=C(CCc1ccccc1)c1ccccc1OC[C@H](O)CN1CCN(c2ccc(F)cc2)CC1 | 0.0708 µM
Cc1ccccc1N1CCN(C[C@@H](O)COc2cccc(C(=O)c3ccccc3)c2)CC1 | 0.204 µM
CC(C)[C@@H](CO)N[C@H]1c2cc(C#N)ccc2OC(C)(C)[C@@H]1O | 102 µM
COc1ccccc1N1CCN(C[C@@H](O)COc2ccccc2C(=O)CCc2ccccc2)CC1 | 0.229 µM
CC(C)[C@H](C(=O)OC(C)(C)C)N(C)[C@H]1c2cc(C#N)ccc2OC(C)(C)[C@@H]1O | 0.977 µM
C[C@H]1c2ccccc2O[C@H]1C(=O)N1CCCCC1 | 105 µM
Cc1cccc(N2CCN(C[C@@H](O)COc3cccc(C(=O)c4ccccc4)c3)CC2)c1C | 0.174 µM
CO[C@@H](CCc1ccccc1)c1ccccc1OC[C@H](O)CN1CCN(Cc2ccccc2)CC1 | 0.0794 µM
Cc1cccc(N2CCN(C[C@@H](O)COc3ccc(C(=O)CCc4cccc5ccccc45)cc3)CC2)c1C | 0.479 µM
Cc1c(C(=O)CCc2ccccc2)c(=O)n(-c2ccccc2)n1C[C@H](O)CNC(C)(C)C | 7.76 µM
Cc1c(C(=O)c2cccs2)c(=O)n(-c2ccccc2)n1C[C@H](O)CNC(C)C | 123 µM
O=C(CCc1cccc2ccccc12)c1cccc(OCC(O)CN2CCN(c3ccc(F)cc3)CC2)c1 (stereo unspecified) | 0.158 µM
O=C(CCc1ccccc1)c1ccccc1OC[C@H](O)CN1CCC(Cc2ccccc2)CC1 | 0.257 µM
CCN(CC)C[C@@H](O)COc1ccccc1C(=O)CCc1ccccc1 | 0.912 µM
Cc1ccc(OC[C@H](O)CN2CCN(c3ccccc3C)CC2)c(C(=O)CCc2ccccc2)c1 | 0.0257 µM
CN(CCO)[C@H]1c2cc(C#N)ccc2OC(C)(C)[C@@H]1O | 97.7 µM
CC[C@H](C)c1ccc(N2C(=O)c3ccccc3N[C@H]2c2ccc(C(C)C)cc2)cc1 | 0.288 µM
CCCNC[C@@H](O)COc1ccsc1C(=O)CCc1ccccc1 | 0.813 µM
O=C1c2cccc(OC[C@H](O)CN3CCCCC3)c2C[C@H]1Cc1ccccc1 | 0.141 µM
CO[C@H](CCc1ccccc1)c1ccccc1OC[C@H](O)CN1CCN(c2ccc(F)cc2)CC1 | 0.224 µM
O=C(CCc1ccccc1)c1cccc(OC[C@H](O)CN2CCCCC2)c1 | 0.427 µM
O=C(CCc1ccccc1)c1cc(O)ccc1OC[C@H](O)CN1CCN(Cc2ccccc2)CC1 | 0.525 µM
CN[C@H]1c2cc(C#N)ccc2OC(C)(C)[C@@H]1O | 309 µM

SMILES | EC50
CC(C)[C@@H]1C(=O)O[C@H]2[C@@H](c3cc(C#N)ccc3OC2(C)C)N1C | 79.4 µM
CC(C)[C@@H](CO)N[C@@H]1c2cc(C#N)ccc2OC(C)(C)[C@H]1O | 53.7 µM
CC1(C)Oc2ccc(C#N)cc2[C@H]2[C@H]1OCCN2Cc1ccccc1 | 19.5 µM
CC(=O)c1cc(C)ccc1OC[C@H](O)CN1CCN(c2ccc(C)cc2)CC1 | 3.16 µM
Cc1ccccc1N1CCN(C[C@@H](O)Cn2c(C)c(C(=O)c3ccccc3)c(=O)n2-c2ccccc2)CC1 | 0.891 µM
CC(C)(C)O[C@H](CCc1ccccc1)c1ccccc1OC[C@H](O)CN1CCCCC1 | 0.398 µM
O=C(c1ccccc1)c1ccc(OC[C@H](O)CN2CCOCC2)cc1 | 5.37 µM
CC(C)N(C[C@@H](O)COc1cccc(C(=O)CCc2cccc3ccccc23)c1)C(C)C | 0.0589 µM
CC(C)[C@H](C(=O)OC(C)(C)C)N(C)[C@@H]1c2cc(C#N)ccc2OC(C)(C)[C@H]1O | 1 µM
CC(NC1c2cc(C#N)ccc2OC(C)(C)C1O)C(=O)OC(C)(C)C (stereo unspecified) | 29.5 µM
Cc1ccc(NC(=O)N2CCN(C[C@@H](O)COc3ccccc3C(=O)c3ccccc3)CC2)cc1 | 0.479 µM
O=C(CCc1ccccc1)c1cccc(OC[C@H](O)CN2CCOCC2)c1 | 3.47 µM
CCCNC[C@@H](O)COc1ccc(O)cc1C(=O)CCc1ccccc1 | 3.02 µM
O=C(CCc1ccccc1)c1ccccc1OC[C@H](O)CNCC(c1ccccc1)c1ccccc1 | 0.794 µM
CN1CCO[C@@H]2[C@@H]1c1cc(C#N)ccc1OC2(C)C | 61.7 µM
CC(C)[C@@H](CO)N(C)[C@@H]1c2cc(C#N)ccc2OC(C)(C)[C@H]1O | 5.5 µM
CC(C)[C@H](NC[C@@H](O)COc1ccccc1C(=O)CCc1ccccc1)c1ccccc1 | 0.209 µM
O=C(CCc1ccccc1)c1ccccc1OC[C@H](O)CN1CCN(Cc2ccccc2)CC1 | 0.661 µM
Cc1c(C(=O)CCc2ccccc2)c(=O)n(-c2ccccc2)n1C[C@H](O)CNC(C)C | 11.7 µM
CC(C)(C)OC(=O)C(Cc1ccccc1)N[C@@H]1c2cc(C#N)ccc2OC(C)(C)[C@H]1O (stereo partly specified) | 0.55 µM
C[C@@H](C(=O)OC(C)(C)C)N(C)[C@@H]1c2cc(C#N)ccc2OC(C)(C)[C@H]1O | 3.98 µM
O=C1C[C@H](CN2CCN(c3ccc(F)cc3)CC2)Oc2ccccc21 | 17.8 µM
O=C(c1ccccc1)c1ccccc1OC[C@@H](O)CN1CCN(C[C@@H](O)COc2ccccc2C(=O)c2ccccc2)CC1 | 0.0525 µM
CC(C)[C@H](N[C@H]1c2cc(C#N)ccc2OC(C)(C)[C@@H]1O)C(=O)OC(C)(C)C | 1.78 µM
COc1ccc([C@@H]2Nc3ccccc3C(=O)N2c2ccc(NC(C)=O)cc2)cc1 | 20.9 µM
CN(C)C[C@@H](O)COc1ccccc1C(=O)CCc1ccccc1 | 2.45 µM

SMILES | EC50
Cc1ccc(C(=O)N2c3ccccc3[C@@H](N3CCCC3)[C@@H](O)[C@H]2C)cc1 | 7.94 µM
CC(C)(C)OC(=O)N1CCN(C[C@@H](O)COc2ccccc2C(=O)c2ccccc2)CC1 | 0.871 µM
O=C(c1ccccc1)c1ccc(OC[C@H](O)CN2CCCCC2)cc1 | 2.19 µM
O=C1c2c(cccc2OC[C@H](O)CN2CCOCC2)C[C@@H]1Cc1ccccc1 | 0.295 µM
CC(=O)c1ccc(OC[C@H](O)CN2CCN(c3ccc(F)cc3)CC2)cc1 | 11.7 µM
O=C1C[C@H](CN2CCOCC2)Oc2ccccc21 | 1260 µM
COc1ccccc1N1CCN(C[C@@H](O)c2oc3ccccc3c2CCc2ccccc2)CC1 | 0.178 µM
CCC(=O)c1ccccc1OC[C@H](O)CN1CCOCC1 | 209 µM
O=C(CCc1cccc2ccccc12)c1ccccc1OC[C@H](O)CN1CCN(c2ccc(F)cc2)CC1 | 0.0178 µM
O=C(CCc1ccccc1)c1ccc(OC[C@H](O)CN2CCN(c3ccc(F)cc3)CC2)cc1 | 2.51 µM
O=C(CCc1cccc2ccccc12)c1ccccc1OC[C@H](O)CN1CCCCC1 | 0.174 µM
Cc1cccc(N2CCN(C[C@@H](O)COc3ccccc3[C@@H](O)CCc3ccccc3)CC2)c1C | 0.0832 µM
CC(=O)c1cc(C)ccc1OC[C@H](O)CN1CCOCC1 | 12.6 µM
O=C(CCc1ccccc1)c1ccccc1OC[C@H](O)CNC1CCCCC1 | 0.339 µM
C[C@H]1c2ccccc2O[C@H]1CN1CCCCC1 | 49 µM
CCCNC[C@@H](O)c1oc2ccccc2c1CC | 11.5 µM
O=C(CCc1ccccc1)c1cccc(OC[C@H](O)CN2CCN(c3ccc(F)cc3)CC2)c1 | 1.12 µM
O[C@@H](COc1ccccc1[C@H](O)CCc1ccccc1)CN1CCN(c2ccc(F)cc2)CC1 | 0.676 µM
CC1(C)Oc2ccc(C#N)cc2[C@@H](NCc2ccccc2)[C@@H]1O | 58.9 µM
COc1ccc(C(=O)CCc2ccccc2)c(OC[C@H](O)CN2CCCCC2)c1 | 0.295 µM
CC1(C)Oc2ccc(C#N)cc2[C@H](NCc2ccccc2)[C@H]1O | 35.5 µM
COc1ccc(N2CCN(C[C@@H](O)COc3ccccc3C(=O)CCc3ccccc3)CC2)cc1 | 0.257 µM
CCC(=O)c1ccc(OC[C@H](O)CN2CCN(c3ccc(F)cc3)CC2)cc1 | 1.45 µM
O=C(/C=C/c1ccccc1)c1ccccc1OC[C@H](O)CN1CCCCC1 | 0.316 µM
O=C(CCc1ccccc1)c1ccccc1OC[C@H](O)CNc1ccc([N+](=O)[O-])cc1 | 2.57 µM
O=C(CCc1ccccc1)c1cccc(OC[C@H](O)CNCCC(c2ccccc2)c2ccccc2)c1 | 0.191 µM

SMILES | EC50
CC(C)(C)OC(=O)CN[C@H]1c2cc(C#N)ccc2OC(C)(C)[C@@H]1O | 46.8 µM
O=C(c1ccccc1)c1ccccc1OC[C@H](O)CN1CCOCC1 | 13.5 µM
CCCNC[C@@H](O)Cn1c(C)c(C(=O)c2ccccc2)c(=O)n1-c1ccccc1 | 186 µM
CC(=O)c1ccc(OC[C@H](O)CNCCC(c2ccccc2)c2ccccc2)cc1 | 0.178 µM
O=C(c1ccccc1)c1ccccc1OC[C@H](O)CN1CCN(c2ccc(F)cc2)CC1 | 0.148 µM
CCc1ccc(N2C(=O)c3ccccc3N[C@H]2c2ccc(OCC(C)C)cc2)cc1 | 1.2 µM
CCOc1ccccc1NC(=O)C1=C(C)NC(=S)N[C@@H]1c1cccs1 | 8.71 µM
CC(C)N(C[C@@H](O)COc1ccccc1C(=O)CCc1cccc2ccccc12)C(C)C | 0.468 µM
C[C@@H](C(=O)OC(C)(C)C)N(C)[C@H]1c2cc(C#N)ccc2OC(C)(C)[C@@H]1O | 3.72 µM
Cc1nn(C)c(OC[C@H](O)CN(C(C)C)C(C)C)c1C(=O)c1ccccc1 | 1.2 µM
CCN(CC)C[C@@H](O)COc1ccccc1C(=O)c1ccccc1 | 2.34 µM
CC(C)[C@@H](N[C@H]1c2ccccc2OC(C)(C)[C@@H]1O)C(=O)OC(C)(C)C | 1.35 µM
Cc1ccc(OC[C@H](O)CN2CCCCC2)c(C(=O)CCc2ccccc2)c1 | 0.263 µM
O[C@H](COc1ccccc1[C@H](O)CCc1ccccc1)CN1CCCCC1 | 1.51 µM
CC(C)(C)OC(=O)CN(Cc1ccccc1)[C@H]1c2cc(C#N)ccc2OC(C)(C)[C@@H]1O | 2 µM
C[C@@H]1N[C@H]2c3cc(C#N)ccc3OC(C)(C)[C@@H]2OC1=O | 77.6 µM
CC(C)N(C[C@@H](O)COc1ccc(C(=O)CCc2ccccc2)cc1)C(C)C | 0.912 µM
CC(=O)O[C@@H](COc1ccccc1C(=O)CCc1ccccc1)CN1CCCCC1 | 0.339 µM
CCCNC[C@@H](O)Cn1c(C)c(C(=O)c2cccs2)c(=O)n1-c1ccccc1 | 95.5 µM
CNC1c2cc(C#N)ccc2OC(C)(C)C1O (stereo unspecified) | 776 µM
C[C@@H]1N[C@@H]2c3cc(C#N)ccc3OC(C)(C)[C@H]2OC1=O | 1230 µM
Cc1ccccc1N1CCN(C[C@@H](O)COc2ccc(Cl)cc2C(=O)CCc2ccccc2)CC1 | 0.0589 µM
O=C(CCc1ccccc1)c1cc(O)ccc1OC[C@H](O)CN1CCCCC1 | 1.74 µM
